# According to patent US20260256716A1, “COMPOSITIONS AND METHODS OF USE THEREOF” (Board of Supervisors of Louisiana State University and …, priority 2023, published 2026):
# Entries after “also recorded” stand apart in the source; their conditions may differ.
# Experiments:
# A549 cells = experiment: Cell viability after cumene peroxide oxidative stress (Hoechst / propidium iodide); assay type: cell-based
# Protocol: A549 cells were treated with the indicated concentrations of R-DOI (panel A) or 2C-iBu (panel B) and subsequently exposed to cumene peroxide to oxidatively stress cells. Cell viability was visualized by staining with Hoescht (Blue) to mark total cells (live plus dead) and propidium iodide (red) to mark dead cells.
# ARPE cells = experiment: Blue light induced mitochondrial fragmentation in ARPE cells (mitotracker green); assay type: cell-based, human; conditions: 100 nM; 48 hours; hyperglycemic conditions; blue light 400 nm
# Protocol: ARPE cells grown under hyperglycemic conditions were plated and mock treated or treated with R-DOI or 2C-iBu at 100 nM. 48 hours post treatment, mitochondria in live cells were visualized by staining mitochondria with mitotracker green (green). Once stained, live ARPE cells were exposed to focused blue light at 400 nm and the ability of drugs to protect against blue light damage-induced mitochondrial fragmentation was assessed.
# [1] = system: phosphorylated myosin light chain; experiment: Western blot of phosphorylated myosin light chain (MLC) in ARPE-19 cells under hyperglycemic conditions; assay type: cell-based, human
# Protocol: A Hallmark of Age-Associated Ocular and Neurodegenerative Disorders is Cytoskeletal Alteration and Induction of CONTRACTILE Stress Fiber Formation. Expression and activation via phosphorylation of Myosin Light Chain (MLC), is a biomarker of disease development. ARPE-19 cells and ARPE-19 cells specifying 5-HT2AR knockouts were plated in nutrient rich media (DMEM; 7% FCS) overnight. Cells were fixed, permeabilized, and stained phalloidin and α-phosphorylated-Myosin light chain. Cytoskeletal elements were then visualized by fluorescent microscopy to visualize actin fiber cytoskeletal structures (phalloidin, red) and contractile phosphorylated myosin light chain (green) via fluorescent microscopy. […] ARPE-19 cells were cultured under hyperglycemic conditions in nutrient rich media (DMEM High glucose; 7% FCS) overnight either in the absence or presence of 5-HT2A receptor agonists R-DOI and 2CiBu at 10 nm or 100 nM concentrations. The relative expression of the activated disease biomarker contractile phosphorylated myosin light chain was determined using specific antibodies and western blot analysis. 5-HT2A agonists. […] Therefore, 5-HT2A agonism at low concentrations have the potential to prevent and reverse deleterious cytoskeletal events that can be induced under hyperglycemic conditions, such as in diabetics.
# This can be consistent with 2C-iBu being able to regulate IOP and that 5HT2A agonists prevented edema formation and disruption of corneal architecture in a model of herpetic keratitis.
# AMP kinase = AMP kinase activation in treated cells; assay type: cell-based; conditions: low nM concentrations
# ARPE-19 cells [2] = experiment: ATP luciferase assay in ARPE-19 cells; assay type: cell-based, human
# ARPE-19 cells [3] = experiment: SA-β-Gal cellular senescence in ARPE-19 cells in nutrient rich media (DMEM); assay type: cell-based, human; conditions: 10 nM in starvation media overnight, then DMEM 7% FCS 72 hours
# Protocol: ARPE-19 cells in nutrient rich media (DMEM; 7% FCS) were seeded overnight prior to being replaced with starvation media (DMEM; 0.5% FCS) containing 10 nM R-DOI or 10 nM M100,907. After overnight incubation in starvation media with drug, cells were swapped to DMEM 7% FCS media for 72-hours. After the 72-hour incubation, cells were fixed and stained for SA-β-Gal for 6-hours. Cells nuclei were then stained with DAPI for total-cell enumeration. SA-β-Gal positive cells, and total cells per frame, were quantified by microscopy.
# ARPE-19 cells [4] = experiment: ARPE-19 proliferation (DAPI cell number, fold change in growth); assay type: cell-based, human; conditions: for cellular replication / proliferation: physiologically relevant serotonin levels, 72 h
# Protocol: Specific 5-HT2A Receptor Activation via Model Phenethylamines, like R-DOI. […] ARPE-19 cells were plated in nutrient rich media, DMEM, containing 7% dialyzed FCS and then starved in DMEM media containing 0.5% dialyzed FCS. Cells were then changed to 7% dialyzed FCS DMEM media containing physiolocial relevant levels of serotonin at varying concentrations and grown for 72-hours. Cell numbers were determined through DNA staining with DAPI and fold change in growth was determined from baseline readings at 24-hours. To assess if agonists of the 5HT2A receptor could enhance cell health and proliferation specifically through the 5-HT2A receptor, the model 5-HT2A receptor agonist, R-DOI was added at either 0.1 nM or 1 nM. […] Also, included is a summary of physiological serotonin and 5-HT2A receptor agonist/antagonist outcomes on cellular proliferation. This increase in proliferation promotes the formation of a compact RPE-monolayer which is important for maintaining a healthy blood-retinal barrier and can occur with low dose administration of 5-HT2A receptor agonists.
# ARPE-19 cells were plated in nutrient rich media, DMEM, containing 7% dialyzed FCS and then starved in DMEM media containing 0.5% dialyzed FCS. Cells were then changed to 7% dialyzed FCS DMEM media containing physiological relevant levels of serotonin at varying concentrations and grown for 72-hours. Cell numbers were determined through DNA staining with DAPI and fold change in growth was determined from baseline readings at 24-hours. To assess if serotonin enhances cell health and proliferation specifically through the 5-HT2A receptor, the 5-HT2A receptor antagonist, M100,907 at 10 nM was included during serotonin induction.
# ARPE-19 cells [5] = experiment: Hyperglycemia induced SA-β-Gal cellular senescence in ARPE-19 cells (HPLM); assay type: cell-based, human
# Protocol: Consistent with Retinal Deterioration by Glucose-Induced Cellular Senescence in the Diabetic Population, Hyperglycemic conditions induce increased disease promoting Cellular Senescence that is abrogated by low nM concentrations of the Representative 5-HT2A Receptor Agonist, R-DOI Returning to Base-line Homeostatic Levels. ARPE-19 cells in physiologically relevant media (HPLM; 7% FCS) were seeded overnight prior to being replaced with starvation media (HPLM 0.5% FCS) containing 10 nM R-DOI. After overnight incubation in starvation media, cells were swapped to media containing diabetic blood glucose levels (HPLM 7% FCS containing 5 mM, 10 mM, 20 mM, or 30 mM glucose) for 72-hours. After the 72-hour incubation, cells were fixed and stained for SA-β-Gal for 6-hours. Cells nuclei were then stained with DAPI for total-cell enumeration. SA-β-Gal positive cells, and total cells per frame, were quantified by microscopy. Pathological/diabetic glucose concentrations induce cellular senescence. 5-HT2A receptor agonism alleviates glucose-induced senescence at diabetic blood glucose levels. […]
# Effects of specific phenethylamine 5-HT2A receptor agonists on reduction of Hyperglycemia induced Disease Promoting Cellular Senescence: Inhibition of Cell Senescence and Disease Processes are Drug and Dose Dependent. […] SA-3-Gal positive cells, and total cells per frame, were quantified by microscopy. For each 5-HT2A agonist assessed, the % of senescent cells is expressed relative to the hyperglycemic control. […]
# Inhibition of Cell Senescence and Disease Processes are Drug and Dose Dependent. […] SA-β-Gal positive cells, and total cells per frame, were quantified by microscopy. For each 5-HT2A agonist assessed, the % of senescent cells is expressed relative to the hyperglycemic control. […]
# ARPE-19 cells [6] = experiment: FACS forward scatter cell size of ARPE-19 cells; assay type: cell-based, human; conditions: treated overnight, then 4 days in normal media
# Source text: Upon initial seeding of potential 5HT2A KD cells there was a readily apparent alteration of normal ARPE cell morphology. Cells appeared flattened, extended, highly attached and enlarged. Each cell line isolate maintained this enlarged and flattened cell morphology as shown to the right and quantified below. […] This markedly altered morphology is present in cells that have begun to undergo changes related to aging, including evolving a senescent or pre-senescent phenotype. Therefore, FACS analysis of 5HT2A KD cells was performed comparing the cell size of Forward Scatter to ARPE-19 cells, treated overnight with Etoposide, an inhibitor of topoisomerase, and a known inducer of cell senescence, and then cultured for 4 days in normal media in the absence of etoposide. […] Further an increase in particles of “cell degranulation” sizing was also observed in all conditions compared to ARPE-19 WT controls.
smiles,measurement,setting,value
"COc1cc(CC(C)C)c(OC)cc1CCN [2C-iBu, 2,5-Dimethoxy-4-isobutylphenethylamine]",oxidative stress-induced cell death,A549 cells,protected cells from oxidative stress-induced cell death
same,blue light induced mitochondrial fragmentation/damage,ARPE cells,Inhibit Blue Light and Oxidative Stress Induced Mitochondrial Fragmentation/Damage
same,hyperglycemia induced phosphorylated MLC levels,"[1]; ARPE-19, DMEM High glucose 7% FCS overnight, 10 nM, western blot",suppressed hyperglycemia induced phosphorylated MLC levels
same,phosphorylation of MLC,"[1]; WT ARPE-19 in media with hyperglycemic glucose (17.5 mM), low dose, not high doses",inhibited
same,AMP kinase activation,AMP kinase,activation of AMP kinase
same,ATP levels relative to Mock treated ARPE-19 cells,ARPE-19 cells [2]; 10 fold dilutions 100 nM to 0.1 nM,Increase Mitochondrial Function And ATP Production
same,production of ATP,"ARPE-19 cells [2]; ARPE WT cells, 24 h after administration",enhanced production of ATP
"COc1cccc([C@H](O)C2CCN(CCc3ccc(F)cc3)CC2)c1OC [M100,907, reference compound]",cellular senescence (SA-β-Gal positive cells),ARPE-19 cells [3],Increases Proportions of Cellular Senescence
same,serotonin-mediated enhanced replication,ARPE-19 cells [4]; antagonist at 10 nM during serotonin induction,abrogated serotonin-mediated enhanced replication
COc1cc(C(F)(F)F)c(OC)cc1C[C@@H](C)N [R-DOTFM],concentration at which disease is exacerbated,ARPE-19 cells [5],≥ 10 nM
same,hyperglycemia induced cellular senescence relative to hyperglycemic control,"ARPE-19 cells [5]; 1 uM to 0.1 nM, HPLM 30 mM glucose, 72 hours",enhances rather than inhibits Aging-Associated Disease Processes and Cellular Senescence
"NCCc1c[nH]c2ccc(O)cc12 [Serotonin, 5-hydroxytryptamine]",cellular replication / proliferation,ARPE-19 cells [4],Enhances Cellular Health and Replication
same,cellular replication / proliferation,ARPE-19 cells [4]; listed as 5-HT,increase cellular replication; also recorded: increase ARPE-19 Proliferation
same,cellular replication / proliferation,ARPE-19 cells [4]; listed as serotonin,enhance cellular replication patterns; also recorded: enhance replication of cells
COc1cc([C@@H]2c3cc4c(cc3[C@@H](O[C@@H]3O[C@@H]5CO[C@@H](C)O[C@H]5[C@H](O)[C@H]3O)[C@H]3COC(=O)[C@H]23)OCO4)cc(OC)c1O [etoposide],cell size (forward scatter),ARPE-19 cells [6],increased cell size
